{"source": "paper PMC5626944", "about": "(Frontiers in Pharmacology, 2017)", "key": {"GABA A, Agonist Site": {"tested_on": "GABA A, Agonist Site", "assay": "NovaScreen competition binding", "settings": "1 µM"}, "Opioid, Delta 2 (h)": {"tested_on": "Opioid, Delta 2 (h)", "assay": "NovaScreen competition binding", "parameters": "species or system human", "settings": "1 µM"}, "[1]": {"tested_on": "T1, Leukotriene, LTD4 (CysLT1)", "T1 construct": "PerkinElmer – Caliper Life Sciences (NovaScreen service)", "assay": "NovaScreen competition binding", "settings": "1 µM"}, "Bradykinin, BK2": {"tested_on": "T2, Bradykinin, BK2", "T2 construct": "PerkinElmer – Caliper Life Sciences (NovaScreen service)", "assay": "NovaScreen competition binding", "settings": "1 µM"}, "Adenosine, A1": {"tested_on": "T3, Adenosine, A1", "T3 construct": "PerkinElmer – Caliper Life Sciences (NovaScreen service)", "assay": "NovaScreen competition binding", "settings": "1 µM"}, "Histamine, H3": {"tested_on": "Histamine, H3", "assay": "NovaScreen competition binding", "settings": "1 µM"}, "Dopamine, D3": {"tested_on": "Dopamine, D3", "assay": "NovaScreen competition binding", "settings": "1 µM"}, "[2]": {"tested_on": "Nitric Oxide, NOS (Neuronal-Binding)", "assay": "NovaScreen competition binding", "settings": "1 µM"}, "[3]": {"assay": "In vitro metabolism in microsomes", "assay_type": "in vitro ADME", "settings": "human microsomes"}, "[4]": {"molecular_target": "Glutamate,NMDA,Glycine (Stry-insens Site) (Ionot (Rattus norvegicus, UniProt P35439))", "sequence (P35439 394-863 limits assumed)": "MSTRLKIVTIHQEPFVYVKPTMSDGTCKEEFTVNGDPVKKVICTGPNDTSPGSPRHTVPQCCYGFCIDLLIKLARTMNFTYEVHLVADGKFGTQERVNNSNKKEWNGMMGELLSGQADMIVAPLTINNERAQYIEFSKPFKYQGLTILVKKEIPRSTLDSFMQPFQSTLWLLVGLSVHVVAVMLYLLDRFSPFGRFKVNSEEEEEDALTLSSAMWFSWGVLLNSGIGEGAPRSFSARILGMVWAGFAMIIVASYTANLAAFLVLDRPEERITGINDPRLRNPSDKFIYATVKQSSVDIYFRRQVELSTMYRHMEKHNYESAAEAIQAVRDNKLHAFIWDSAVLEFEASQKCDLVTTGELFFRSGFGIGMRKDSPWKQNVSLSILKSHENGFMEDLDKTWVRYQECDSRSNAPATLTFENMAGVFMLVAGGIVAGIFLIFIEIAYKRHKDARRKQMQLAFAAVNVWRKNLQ", "assay": "NovaScreen competition binding"}, "Leukotriene, LTB4 (BLT)": {"tested_on": "Leukotriene, LTB4 (BLT)", "assay": "NovaScreen competition binding", "settings": "1 µM"}, "[5]": {"assay": "Pharmacokinetics in mice, plasma and brain by LC-MS/MS", "assay_type": "in vivo, mouse", "settings": "for half-life / Tmax: both sexes, mouse, plasma; for Tmax: read-out: Time of maximum plasma concentration", "protocol": "Pharmacokinetic experiments with TC299423 were performed by Absorption Systems LP (Exton, PA, United States). […] Blood samples were taken and the brains were harvested 5 min, 15 min, 30 min, 1 h, 3 h, and 6 h after drug administration. […] Blood and brain samples were obtained at the same time points as above. Untreated plasma and blood samples were collected from three mice in the same cohort as the study animals for pre-dose (time 0) samples. Blood samples were collected by cardiac puncture and stored in tubes containing sodium heparin before being processed. Plasma was prepared and frozen for analysis. Brains were harvested, rinsed, patted dry, weighed, and frozen.\nMatched matrix was used for preparation of calibration standards. Dosing solutions were normalized in matched matrix and analyzed in triplicate in the same analytical batch as the incurred samples."}, "[6]": {"tested_on": "Glutamate, AMPA Site (Ionotropic)", "assay": "NovaScreen competition binding", "settings": "1 µM"}, "[7]": {"tested_on": "T4, Adenosine Transporter (h)", "T4 construct": "PerkinElmer – Caliper Life Sciences (NovaScreen service)", "assay": "NovaScreen competition binding", "parameters": "species or system human", "settings": "1 µM"}, "WT mice": {"tested_on": "WT mice", "assay": "Hot plate assay", "assay_type": "in vivo, mouse", "settings": "0.3 mg/kg ip each, 55°C hot plate, p < 0.05", "protocol": "Mice were again habituated to the experimental room for ≥2 h prior to testing. […] This apparatus is a heated metal plate, maintained at 55°C, enclosed by a clear acrylic plastic cylinder (∼10 cm in diameter), within which the mouse is free to move. […] If the mouse urinates during the assay, it is immediately removed from the hot plate. The time that the mouse remains on the hot plate prior to showing signs of discomfort is recorded. Doses were administered using a Latin-square crossover design. A day without testing occurred between each test."}, "[8]": {"tested_on": "T5, Phosphodiesterase, PDE4A1A (h)", "T5 construct": "PerkinElmer – Caliper Life Sciences (NovaScreen service)", "assay": "NovaScreen enzyme assay", "assay_type": "biochemical, human", "settings": "1 µM"}, "Serotonin, 5HT1A (h)": {"tested_on": "Serotonin, 5HT1A (h)", "assay": "NovaScreen competition binding", "parameters": "species or system human", "settings": "1 µM"}, "CYP3A4": {"tested_on": "CYP3A4", "assay": "Turnover by recombinantly expressed human cytochrome P450 isoforms", "assay_type": "in vitro ADME", "settings": "100 pmol/mL enzyme, 37 °C", "protocol": "S2 Table. In vitro metabolism of TC299423, compared w ith varenicline.\nHuman Rat microsomes Turnover by human cytochrome P450 isoforms […]\nThe assay mixtures (final incubation volume of 125 μL) in 0.255 M phosphate buffer with 0.575% (w/v) KCl (pH 7.4) contained PiB (1.0 μM), […] a recombinantly expressed cytochrome P450 enzyme preparation (1A2, 2C9, 2C19, 2D6, 3A4, and FMO3) at 100 pmol/mL. After a 10 min preincubation at 37 °C, the reaction was initiated by addition of 2.0 mM NADPH and incubated for 60 min. The reactions were terminated by the addition of two volumes of DMSO. Samples were subsequently centrifuged at 4,000 rpm for 10 min. From the resulting supernatant, 10 μ L was analyzed by liquid chromatography/tandem mass spectrometry (LC-MS/MS). Control experiments were performed by substituting the active enzyme preparation by cell preparations containing no recombinant human CYP. a, Data for clearance are given as μL /min/mg protein. […]\nc, Data for cytochrome P450 turnover and for human flavin- containing monooxygenase 3 (FMO3) are given as percent decline over 60 min."}, "Muscarinic, M3 (h)": {"tested_on": "Muscarinic, M3 (h)", "assay": "NovaScreen competition binding", "parameters": "species or system human", "settings": "1 µM"}, "Dopamine, D2s (h)": {"tested_on": "Dopamine, D2s (h)", "assay": "NovaScreen competition binding", "parameters": "species or system human", "settings": "1 µM"}, "[9]": {"molecular_target": "T6, High-sensitivity α4(2)β2(3) nAChRs (Mus musculus, UniProt O70174+Q9ERK7)", "T6 construct": "from tissue; host or cells: WT mouse thalamic and cortical synaptosomes", "T6 sequence (Q9ERK7 26-501)": "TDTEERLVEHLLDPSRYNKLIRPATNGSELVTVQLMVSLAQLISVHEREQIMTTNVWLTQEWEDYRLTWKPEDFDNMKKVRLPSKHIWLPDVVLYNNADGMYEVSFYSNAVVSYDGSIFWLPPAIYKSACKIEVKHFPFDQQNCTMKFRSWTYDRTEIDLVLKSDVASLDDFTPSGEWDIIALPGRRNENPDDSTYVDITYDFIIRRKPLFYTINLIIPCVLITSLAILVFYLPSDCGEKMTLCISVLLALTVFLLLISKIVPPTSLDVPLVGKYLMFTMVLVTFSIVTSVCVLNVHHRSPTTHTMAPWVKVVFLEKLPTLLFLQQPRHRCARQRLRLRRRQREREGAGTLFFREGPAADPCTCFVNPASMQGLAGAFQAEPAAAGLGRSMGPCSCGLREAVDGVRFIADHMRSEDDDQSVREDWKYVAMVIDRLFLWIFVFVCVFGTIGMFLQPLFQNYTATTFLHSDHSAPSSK", "T6 sequence (O70174 31-629)": "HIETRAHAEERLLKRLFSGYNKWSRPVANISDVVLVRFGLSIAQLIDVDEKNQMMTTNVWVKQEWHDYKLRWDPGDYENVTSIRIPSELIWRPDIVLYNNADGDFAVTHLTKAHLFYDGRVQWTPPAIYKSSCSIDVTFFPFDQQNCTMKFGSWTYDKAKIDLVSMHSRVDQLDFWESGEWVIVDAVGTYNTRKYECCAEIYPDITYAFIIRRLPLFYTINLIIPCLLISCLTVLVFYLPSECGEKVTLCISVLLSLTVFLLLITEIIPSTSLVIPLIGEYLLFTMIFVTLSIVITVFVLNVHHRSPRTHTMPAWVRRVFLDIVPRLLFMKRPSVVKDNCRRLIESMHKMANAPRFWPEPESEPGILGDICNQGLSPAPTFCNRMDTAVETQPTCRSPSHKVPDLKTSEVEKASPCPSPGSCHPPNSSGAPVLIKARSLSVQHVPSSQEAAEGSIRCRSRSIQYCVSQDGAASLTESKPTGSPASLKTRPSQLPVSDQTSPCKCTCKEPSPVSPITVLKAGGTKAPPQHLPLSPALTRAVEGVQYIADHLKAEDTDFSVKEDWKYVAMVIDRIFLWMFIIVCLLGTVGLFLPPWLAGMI", "assay": "86Rb+ efflux from thalamic and cortical synaptosomes, DhβE-sensitive component", "assay_type": "biochemical", "protocol": "Regions of interest were dissected from fresh mouse brains and homogenized in ice-cold isotonic sucrose (0.32 M), buffered with HEPES (5 mM, pH 7.5). The suspension was centrifuged at 12,000 × g for 20 min."}, "Sigma 2": {"tested_on": "Sigma 2", "assay": "NovaScreen competition binding", "settings": "1 µM"}}, "note": "Read-outs that look alike come from different tables or passages of the source."}
{"smiles": "C1=C(/c2cncnc2)CCCNCC/1", "note": "[TC299423, (E)-5-(pyrimidin-5-yl)-1,2,3,4,7,8-hexahydroazocine]", "values": [{"measurement": "Hit", "setting": "GABA A, Agonist Site", "value": "FALSE"}, {"measurement": "Inhibition", "setting": "GABA A, Agonist Site; [3H]GABA", "value": -2.66, "unit": "%"}, {"measurement": "Hit", "setting": "Opioid, Delta 2 (h)", "value": "FALSE"}, {"measurement": "Inhibition", "setting": "Opioid, Delta 2 (h); [3H]-Naltrindole", "value": -2.12, "unit": "%"}, {"measurement": "Hit", "setting": "[1]", "value": "FALSE"}, {"measurement": "Inhibition", "setting": "[1]; [3H]LTD4", "value": -8.26, "unit": "%"}, {"measurement": "Hit", "setting": "Bradykinin, BK2", "value": "FALSE"}, {"measurement": "Inhibition", "setting": "Bradykinin, BK2; [3H]Bradykinin", "value": 32.29, "unit": "%"}, {"measurement": "Hit", "setting": "Adenosine, A1", "value": "FALSE"}, {"measurement": "Inhibition", "setting": "Adenosine, A1; [3H]CPX", "value": 7.85, "unit": "%"}, {"measurement": "Hit", "setting": "Histamine, H3", "value": "FALSE"}, {"measurement": "Inhibition", "setting": "Histamine, H3; [3H]N-a-MeHistamine", "value": 5.85, "unit": "%"}, {"measurement": "Hit", "setting": "Dopamine, D3", "value": "FALSE"}, {"measurement": "Inhibition", "setting": "Dopamine, D3; [3H]7-OH-DPAT", "value": -16.93, "unit": "%"}, {"measurement": "Hit", "setting": "[2]", "value": "FALSE"}, {"measurement": "Inhibition", "setting": "[2]; [3H]NOARG", "value": -10.86, "unit": "%"}, {"measurement": "Half-life compared to varenicline", "setting": "[3]", "value": "~7", "unit": "fold"}, {"measurement": "half-life", "setting": "[3]", "value": 285, "unit": "min"}, {"measurement": "microsomal CLint", "setting": "[3]; read-out: Clearance", "value": 5, "unit": "µL/min/mg"}, {"measurement": "Hit", "setting": "[4]; 1 µM", "value": "FALSE"}, {"measurement": "inhibition at 1 µM", "setting": "[4]; [3H]-MDL-105,519", "value": 4.34, "unit": "%"}, {"measurement": "Hit", "setting": "Leukotriene, LTB4 (BLT)", "value": "FALSE"}, {"measurement": "Inhibition", "setting": "Leukotriene, LTB4 (BLT); [3H]LTB4", "value": 29.86, "unit": "%"}, {"measurement": "Maximum brain-tissue concentration", "setting": "[5]; 0.3 mg/kg ip", "value": "22 ± 0.43", "unit": "ng/g"}, {"measurement": "Maximum plasma concentration", "setting": "[5]; 0.3 mg/kg ip", "value": "49 ± 18", "unit": "ng/mL"}, {"measurement": "Time of maximum brain-tissue concentration", "setting": "[5]; 0.3 mg/kg ip", "value": 0.5, "unit": "h"}, {"measurement": "Maximum brain-tissue concentration", "setting": "[5]; 0.3 mg/kg ip, converted", "value": 0.12, "unit": "µM"}, {"measurement": "Maximum plasma concentration", "setting": "[5]; 0.3 mg/kg ip, converted", "value": 0.26, "unit": "µM"}, {"measurement": "Maximum brain-tissue concentration", "setting": "[5]; 1 mg/kg oral", "value": "42 ± 17", "unit": "ng/g"}, {"measurement": "Maximum plasma concentration", "setting": "[5]; 1 mg/kg oral", "value": "38 ± 10", "unit": "ng/mL"}, {"measurement": "Time of maximum brain-tissue concentration", "setting": "[5]; 1 mg/kg oral", "value": 0.25, "unit": "h"}, {"measurement": "Maximum brain-tissue concentration", "setting": "[5]; 1 mg/kg oral, converted", "value": 0.22, "unit": "µM"}, {"measurement": "Maximum plasma concentration", "setting": "[5]; 1 mg/kg oral, converted", "value": 0.20, "unit": "µM"}, {"measurement": "half-life", "setting": "[5]; 0.3 mg/kg ip", "value": 10.2, "unit": "min"}, {"measurement": "Tmax", "setting": "[5]; 0.3 mg/kg ip", "value": 4.8, "unit": "min"}, {"measurement": "half-life", "setting": "[5]; 1 mg/kg oral", "value": 67.2, "unit": "min"}, {"measurement": "Tmax", "setting": "[5]; 1 mg/kg oral", "value": 15, "unit": "min"}, {"measurement": "Time remaining in the brain", "setting": "[5]; following ip injection or oral administration", "value": "at least 60 min"}, {"measurement": "Hit", "setting": "[6]", "value": "FALSE"}, {"measurement": "Inhibition", "setting": "[6]; [3H]AMPA", "value": -1.26, "unit": "%"}, {"measurement": "Hit", "setting": "[7]", "value": "FALSE"}, {"measurement": "Inhibition", "setting": "[7]; [3H]-NBTI", "value": 12.86, "unit": "%"}, {"measurement": "Antinociceptive effect compared with varenicline", "setting": "WT mice", "value": "significantly greater than that of varenicline"}, {"measurement": "Hit", "setting": "[8]", "value": "FALSE"}, {"measurement": "Hit", "setting": "Serotonin, 5HT1A (h)", "value": "FALSE"}, {"measurement": "Inhibition", "setting": "Serotonin, 5HT1A (h); [3H]-8-OH-DPAT", "value": 17.60, "unit": "%"}, {"measurement": "Turnover by CYP3A4", "setting": "CYP3A4", "value": "7 percent decline over 60 min"}, {"measurement": "Hit", "setting": "Muscarinic, M3 (h)", "value": "FALSE"}, {"measurement": "Inhibition", "setting": "Muscarinic, M3 (h); [3H]Scopolamine, N-Methyl", "value": -4.77, "unit": "%"}, {"measurement": "Hit", "setting": "Dopamine, D2s (h)", "value": "FALSE"}, {"measurement": "Inhibition", "setting": "Dopamine, D2s (h); [3H]-Raclopride", "value": -21.17, "unit": "%"}, {"measurement": "86Rb+ efflux Efficacy", "setting": "[9]; Cortex", "value": "94 ± 7", "unit": "%"}, {"measurement": "EC50", "setting": "[9]; Cortex, read-out: 86Rb+ efflux EC50", "value": "2 ± 2", "unit": "µM"}, {"measurement": "86Rb+ efflux Efficacy", "setting": "[9]; Thalamus", "value": "139 ± 14", "unit": "%"}, {"measurement": "EC50", "setting": "[9]; Thalamus, read-out: 86Rb+ efflux EC50", "value": "0.6 ± 0.1", "unit": "µM"}, {"measurement": "EC50", "setting": "[9]; thalamic and cortical synaptosomes, read-out: EC50 for the DhβE-sensitive α4β2* nAChRs", "value": "0.6 to 2", "unit": "µM"}, {"measurement": "Hit", "setting": "Sigma 2", "value": "FALSE"}, {"measurement": "Inhibition", "setting": "Sigma 2; [3H]-DTG", "value": -0.65, "unit": "%"}]}
